Assay results from patent US7365231B2, “Compound with antitumor activity and preparation method therefor” (National Taiwan University of Science & Technology, priority 2005, dated 2008).

Columns and labels:
Assay in all cases: NCI panel growth inhibition, sulforhodamine B
SF-295 = assay type: cell-based, human; conditions: Homo sapiens, SF-295, SF-295, CNS cancer; drug for last 48 h of 72 h
Source text: (§1) Comparison of anticancer activities of the 1,3-substituted adamantane derivatives, 1,3-bis(4-aminophenyl)adamantane (1,3-DPANH2), 1,3-bis(4-(4-aminophenoxy)phenyl)adamantane (1,3-DPAONH2), 1,3-bis(4-(4-amino-3-hydroxy)phenyl)adamantane (1,3-DPA/OH/NH2) and 1,3-bis(4-(4-amino-2-trifluoromethylphenoxy)phenyl)adamantane (1,3-DPA/CF3/NH2) as shown in FIG. 1 were synthesized in the present invention. Those compounds were submitted to the National Cancer Institute for anticancer assay in culture against a standard panel of cell lines. […] To further confirm that the different substituents (CF3 and OH) on the phenyl ring of 1,3-DPAONH2 affect the growth inhibition of cancer cells. […] The transformations of 1,3-DPAONH2 to 1,3-DPA/OH/NH2 led to a remarked enhancement of anticancer activity toward all the tested cancer lines. The role of the OH group at the ortho position of the NH2 on growth inhibition is remarkable. In addition, one compound (1,3-DPA/OH/NH2) was confirmed to have an IC50 of <1 μM against one of the cells (BT-549 breast carcinoma). Comparison of anticancer activities of 1,3-substituted diaminophenyladamantane derivatives, the following order of potency against the tested cancer lines was observed: 1,3-DPA/OH/NH2>1,3-DPAONH2>1,3-DPANH2>1,3-DPA/CF3/NH2.

BT-549 = assay type: cell-based, human; conditions: Homo sapiens, BT-549, BT-549, Breast cancer; drug for last 48 h of 72 h
Source text: as §1

NCI/ADR-RES = assay type: cell-based, human; conditions: Homo sapiens, Breast cancer, drug for last 48 h of 72 h
Source text: as §1

SNB-19 = assay type: cell-based; conditions: Homo sapiens; SNB-19, CNS cancer; drug for last 48 h of 72 h
Source text: as §1

DU-145 = assay type: cell-based; conditions: Homo sapiens; DU-145, Prostate cancer; drug for last 48 h of 72 h
Source text: as §1

OVCAR-5 = assay type: cell-based; conditions: Homo sapiens; OVCAR-5, Ovarian cancer; drug for last 48 h of 72 h
Source text: as §1

UO-31 = assay type: cell-based; conditions: Homo sapiens; UO-31, Renal cancer; drug for last 48 h of 72 h
Source text: as §1

HOP-62 = assay type: cell-based; conditions: Homo sapiens; HOP-62, NSCLC; drug for last 48 h of 72 h
Source text: as §1

U251 = assay type: cell-based; conditions: Homo sapiens, U-251; U251, CNS cancer; drug for last 48 h of 72 h
Source text: as §1

MDA-MB-231 = assay type: cell-based; conditions: Homo sapiens; MDA-MB-231, Breast cancer; drug for last 48 h of 72 h
Source text: as §1

NCI-H226 = assay type: cell-based; conditions: Homo sapiens; NCI-H226, NSCLC; drug for last 48 h of 72 h
Source text: as §1

786-0 = assay type: cell-based; conditions: Homo sapiens; 786-0, Renal cancer; drug for last 48 h of 72 h
Source text: as §1

A498 = assay type: cell-based; conditions: Homo sapiens; A498, Renal cancer; drug for last 48 h of 72 h
Source text: as §1

OVCAR-3 = assay type: cell-based; conditions: Homo sapiens; OVCAR-3, Ovarian cancer; drug for last 48 h of 72 h
Source text: as §1

UACC-257 = assay type: cell-based; conditions: Homo sapiens; UACC-257, Melanoma; drug for last 48 h of 72 h
Source text: as §1

HL-60(TB) = assay type: cell-based; conditions: Homo sapiens, Leukemia, drug for last 48 h of 72 h
Source text: as §1

OVCAR-8 = assay type: cell-based; conditions: Homo sapiens; OVCAR-8, Ovarian cancer; drug for last 48 h of 72 h
Source text: as §1

SK-MEL-2 = assay type: cell-based; conditions: Homo sapiens; SK-MEL-2, Melanoma; drug for last 48 h of 72 h
Source text: as §1

NCI-H522 = assay type: cell-based; conditions: Homo sapiens; NCI-H522, NSCLC; drug for last 48 h of 72 h
Source text: as §1

SW-620 = assay type: cell-based; conditions: Homo sapiens; SW-620, Colon cancer; drug for last 48 h of 72 h
Source text: as §1

HCT-116 = assay type: cell-based; conditions: Homo sapiens; HCT-116, Colon cancer; drug for last 48 h of 72 h
Source text: as §1

OVCAR-4 = assay type: cell-based; conditions: Homo sapiens; OVCAR-4, Ovarian cancer; drug for last 48 h of 72 h
Source text: as §1

CCRF-CEM = assay type: cell-based; conditions: Homo sapiens, Leukemia, drug for last 48 h of 72 h
Source text: as §1

KM12 = assay type: cell-based; conditions: Homo sapiens, KM12, KM12, Colon cancer; drug for last 48 h of 72 h
Source text: as §1

EKVX = assay type: cell-based; conditions: Homo sapiens, NSCLC, drug for last 48 h of 72 h
Source text: as §1

MDA-MB-435 = assay type: cell-based; conditions: Homo sapiens; MDA-MB-435, Breast cancer; drug for last 48 h of 72 h
Source text: as §1

PC-3 = assay type: cell-based; conditions: Homo sapiens; PC-3, Prostate cancer; drug for last 48 h of 72 h
Source text: as §1

K-562 = assay type: cell-based; conditions: Homo sapiens, K562; K-562, Leukemia; drug for last 48 h of 72 h
Source text: as §1

NCI-H23 = assay type: cell-based; conditions: Homo sapiens; NCI-H23, NSCLC; drug for last 48 h of 72 h
Source text: as §1

Nc1ccc(Oc2ccc(C34CC5CC(C3)CC(c3ccc(Oc6ccc(N)cc6C(F)(F)F)cc3)(C5)C4)cc2)c(C(F)(F)F)c1 [1,3-DPA/CF3/NH2, 1,3-bis-(4-(4-amino-2-trifluoromethylphenoxy)phenyl)adamantane]
IC50 (SF-295): 25.3 µM
IC50 (BT-549): 21.9 µM
IC50 (NCI/ADR-RES): 21.7 µM
IC50 (SNB-19): 22.5 µM
IC50 (DU-145): 35.2 µM
IC50 (OVCAR-5): 27 µM
IC50 (UO-31): 39.1 µM
IC50 (HOP-62): 18.2 µM
IC50 (U251): 14.5 µM
IC50 (MDA-MB-231): 15.2 µM
IC50 (NCI-H226): 19.4 µM
IC50 (786-0): 31.5 µM
IC50 (A498): 18.3 µM
IC50 (OVCAR-3): 17.9 µM
IC50 (UACC-257): 18.7 µM
IC50 (HL-60(TB)): 24.2 µM
IC50 (OVCAR-8): 16 µM
IC50 (SK-MEL-2): 14.1 µM
IC50 (NCI-H522): 14.4 µM
IC50 (SW-620): 36.3 µM
IC50 (HCT-116): 24.9 µM
IC50 (OVCAR-4): 36.6 µM
IC50 (CCRF-CEM): 36.2 µM
IC50 (KM12): 21 µM
IC50 (EKVX): 15.4 µM
IC50 (MDA-MB-435): 24.2 µM
IC50 (PC-3): 14.8 µM
IC50 (K-562): 43.9 µM
IC50 (NCI-H23): 17.7 µM

Nc1ccc(Oc2ccc(C3(c4ccc(Oc5ccc(N)c(O)c5)cc4)C4CC5CC(C4)CC3C5)cc2)cc1O [DPA, 2,2-bis(4-(4-amino-3-hydroxyphenoxy)phenyl)adamantane]
IC50 (SF-295): 2.57 µM
IC50 (BT-549): 2.05 µM
IC50 (NCI/ADR-RES): 2.33 µM
IC50 (SNB-19): 3.01 µM
IC50 (DU-145): 2.06 µM
IC50 (OVCAR-5): 2.08 µM
IC50 (UO-31): 1.85 µM
IC50 (HOP-62): 2.11 µM
IC50 (U251): 1.7 µM
IC50 (MDA-MB-231): 1.82 µM
IC50 (NCI-H226): 1.94 µM
IC50 (786-0): 1.88 µM
IC50 (A498): 4.67 µM
IC50 (OVCAR-3): 1.56 µM
IC50 (UACC-257): 2.32 µM
IC50 (HL-60(TB)): 2.05 µM
IC50 (OVCAR-8): 1.68 µM
IC50 (SK-MEL-2): 1.69 µM
IC50 (NCI-H522): 1.6 µM
IC50 (SW-620): 1.63 µM
IC50 (HCT-116): 1.58 µM
IC50 (OVCAR-4): 3.07 µM
IC50 (CCRF-CEM): 3.08 µM
IC50 (KM12): 2.02 µM
IC50 (EKVX): 2.63 µM
IC50 (MDA-MB-435): 2.3 µM
IC50 (PC-3): 1.6 µM
IC50 (K-562): 1.98 µM
IC50 (NCI-H23): 1.84 µM

Nc1ccc(Oc2ccc(C3(c4ccc(Oc5ccc(N)cc5)cc4)C4CC5CC(C4)CC3C5)cc2)cc1 [2,2-DPAONH2, 2,2-bis(4-(4-aminophenoxy)phenyl)adamantane]
IC50 (SF-295): 6.76 µM
IC50 (BT-549): 4.28 µM
IC50 (NCI/ADR-RES): 15.8 µM
IC50 (SNB-19): 10.1 µM
IC50 (DU-145): 3.31 µM
IC50 (OVCAR-5): 15.3 µM
IC50 (UO-31): 3.02 µM
IC50 (HOP-62): 11.8 µM
IC50 (U251): 2.81 µM
IC50 (MDA-MB-231): 17 µM
IC50 (NCI-H226): 21.4 µM
IC50 (786-0): 3.07 µM
IC50 (A498): 2.91 µM
IC50 (OVCAR-3): 2.58 µM
IC50 (UACC-257): 5.76 µM
IC50 (HL-60(TB)): 5 µM
IC50 (OVCAR-8): 5.82 µM
IC50 (SK-MEL-2): 16.8 µM
IC50 (NCI-H522): 4.28 µM
IC50 (SW-620): 5.03 µM
IC50 (HCT-116): 2.71 µM
IC50 (OVCAR-4): 6.96 µM
IC50 (CCRF-CEM): 3.03 µM
IC50 (KM12): 3.55 µM
IC50 (EKVX): 4.76 µM
IC50 (MDA-MB-435): 6.04 µM
IC50 (PC-3): 6.75 µM
IC50 (K-562): 3.89 µM
IC50 (NCI-H23): 5.15 µM

Nc1ccc(Oc2ccc(C34CC5CC(C3)CC(c3ccc(Oc6ccc(N)cc6)cc3)(C5)C4)cc2)cc1 [1,3-DPAONH2, 1,3-bis(4-(4-aminophenoxy)phenyl)adamantane]
IC50 (SF-295): 6.91 µM
IC50 (BT-549): 4.02 µM
IC50 (NCI/ADR-RES): 8.59 µM
IC50 (SNB-19): 8.66 µM
IC50 (DU-145): 6.41 µM
IC50 (OVCAR-5): 19.1 µM
IC50 (UO-31): 13.6 µM
IC50 (HOP-62): 10.7 µM
IC50 (U251): 7.9 µM
IC50 (MDA-MB-231): 16.9 µM
IC50 (NCI-H226): 23.2 µM
IC50 (786-0): 8.09 µM
IC50 (A498): 18 µM
IC50 (OVCAR-3): 3.08 µM
IC50 (UACC-257): 12.5 µM
IC50 (HL-60(TB)): 17.1 µM
IC50 (OVCAR-8): 4.82 µM
IC50 (SK-MEL-2): 15.7 µM
IC50 (NCI-H522): 13.3 µM
IC50 (SW-620): 6.52 µM
IC50 (HCT-116): 5.65 µM
IC50 (OVCAR-4): 6.98 µM
IC50 (CCRF-CEM): 4.83 µM
IC50 (KM12): 4.07 µM
IC50 (EKVX): 15.6 µM
IC50 (MDA-MB-435): 5.22 µM
IC50 (PC-3): 11.5 µM
IC50 (K-562): 7.08 µM
IC50 (NCI-H23): 6.92 µM
